The subject of one experiment is L6 cells. The experiment is described as follows: Cytotoxic activity against rat skeletal myoblast L6 cells (Alamar Blue). It counts as cell-based. The following applies: 120 h, cytotoxicity, 5 days. Here is the method: The cytotoxicity against mammalian cells was assessed using microtitre plates. Briefly, L6 cells (a rat skeletal muscle line) were seeded at 1 × 10^4 mL^−1 in 200 μL of RPMI-1640 growth medium (with 10% fetal calf serum) containing 7 different compound concentrations in a range previously established to encompass both the IC50 and IC90 values. The plates were incubated for 5 days at 37 °C and 20 μL Alamar Blue (Biosource Ltd, Wilton, North Yorkshire England.) was then added to each well. After an additional 8 hours incubation, the fluorescence was determined using a Gemini fluorescent plate reader (Molecular Devices). Inhibition of growth was calculated by comparison with control values and IC50 and IC90 values were determined in triplicate using linear regression analysis.
In general terms: The colour change of resazurin is a common sign of viable cells or microbes.

For experiment [1], the system named is bloodstream-form Trypanosoma brucei. Briefly: Activity against bloodstream-form Trypanosoma brucei (Alamar Blue growth inhibition). It counts as cell-based, Trypanosoma brucei (strain 427). The following applies: for IC50 / IC90: Trypanosoma brucei, bloodstream form; for IC50: concentration that inhibits growth by 50%, read-out: T. brucei IC50; for IC90: concentration that inhibits growth by 90%, read-out: T. brucei IC90; for S.I. (selectivity index): ratio of IC50 values obtained with L6 cells and T. brucei. Here is the method:
Bloodstream form T. brucei (strain 427) were cultured at 37 °C in modified Iscove's medium. Trypanocidal activity was assessed by growing parasites in microtiter plates in the presence of various drug concentrations. […] The plates were incubated for 48 hours at 37 °C and 20 μL Alamar Blue was then added to each well. After an additional overnight incubation, the fluorescence was determined using a Gemini fluorescent plate reader (Molecular Devices). Inhibition of growth was calculated by comparison with control values and IC50 and IC90 values were determined in triplicate using linear regression analysis.

The test system of experiment [2] is L. infantum intracellular amastigotes. Briefly: Activity against intracellular L. infantum amastigotes in THP-1 derived macrophages (luciferase). It counts as cell-based, Leishmania infantum (MHOM/MA/67/ITMAP-263). The note with it: Leishmania infantum; for inhibition at 10 µM: THP-1, 72 h, read-out: L. infantum (intracellular amastigotes) % of growth inhibition at 10 μM ± ST DEV. Here is the method:
Leishmania infantum Luciferase-expressing L. infantum (strain MHOM/MA/67/ITMAP-263) axenic amastigotes were cultured in MAA/20 medium at 37 °C with 5% CO2, as described by Sereno et al. 1998.[26] The parasites were maintained in 5 mL T25 ventilated flasks and subcultured every seven days at a concentration of 1 × 10^6 cells per mL.
The activity against intracellular amastigotes of L. infantum was evaluated using a modified method described by Santarem, Tavares, and Cordeiro-da-Silva (2019).[27] THP-1 cells were differentiated into macrophages using PMA, as previously outlined. The differentiated macrophages were then infected with L. infantum axenic amastigotes expressing episomal luciferase at a macrophage-to-amastigote ratio of 1 : 10 for four hours at 37 °C in a 5% CO2 atmosphere. After this incubation, non-internalized parasites were washed away, and various concentrations of test compounds were added in a final volume of 100 μL. A dose–response curve for miltefosine was included in all assays to serve as a quality control. Each experimental condition was tested in quadruplicate. After 72 hours of incubation, the medium was replaced with 100 μL of PBS, and 25 μL of Glo-lysis buffer from the Steady-Glo Luciferase Assay System (Promega, Madison, WI, USA) was added. The plates were then agitated at 100 rpm for 10 minutes at room temperature. Following this, 30 μL of the Steady-Glo reagent (Promega, Madison, WI, USA) was added, and the mixture was incubated for 15 minutes in the dark under the same conditions. A total of 140 μL from each well was transferred to white-bottom 96-well plates, and luminescence intensity was measured using a Synergy 2 Multi-Mode Reader (Biotek, Winooski, VT, USA). The antileishmanial effect was assessed by comparing the results with those from non-treated infected cells. The IC50 value were determined through non-linear regression analysis using GraphPad Prism version 8.1.1 for Windows (GraphPad Software, San Diego, CA, USA). Results represent the average of at least three independent experiments.

Molecules are shown by their SMILES.

On to `O=C(Cc1ccc(C23CC4CC(CC(C4)C2)C3)cc1)NCCn1cnc([N+](=O)[O-])n1` [6b, 2-[4-(1-Adamantyl)phenyl]-N-[2-(3-nitro-1H-1,2,4-triazol-1-yl)ethyl]acetamide], for which 30000 ± 2000 nM corresponded to half-maximal inhibition in the experiment on L6 cells (IC50). Besides, in experiment [1], the IC50 was 420 ± 70 nM, the 90% effect concentration (IC90) turned out to be 1800 ± 200 nM and the “S.I. (selectivity index)” value was found to be 72. Also, the inhibition at 10 µM in experiment [2] was 50.1 ± 23%.
On the same counts, the results for `O=C(CCc1ccc(C23CC4CC(CC(C4)C2)C3)cc1)NCCn1cnc([N+](=O)[O-])n1` [6c, 3-[4-(1-Adamantyl)phenyl]-N-[2-(3-nitro-1H-1,2,4-triazol-1-yl)ethyl]propanamide] are 23000 ± 2000 nM, 200 ± 20 nM, 320 ± 10 nM, 114 and 47.6 ± 16.3%.
With `O=C(Cc1ccc(C23CC4CC(CC(C4)C2)C3)cc1)NCCCn1cnc([N+](=O)[O-])n1` [6e, 2-[4-(1-Adamantyl)phenyl]-N-[3-(3-nitro-1H-1,2,4-triazol-1-yl)propyl]acetamide], in the experiment on L6 cells, the half-inhibitory concentration (IC50) worked out at 23000 ± 3000 nM. In experiment [1], the half-inhibitory concentration (IC50) amounted to 240 ± 10 nM, the IC90 turned out to be 400 ± 10 nM and the “S.I. (selectivity index)” value amounted to 96. Moreover, the inhibition at 10 µM in experiment [2] turned out to be 59.5 ± 12%. In addition, the IC50 in experiment [2] (THP-1 derived macrophages, 72 h, 95% CI in brackets, read-out: L. infantum (intracellular amastigotes) IC50 (μM), 95% CI) came out at 6.93 µM.

As a reminder, the IC50 is the concentration that inhibits the measured activity by half. Broadly, the IC90 is the point of the concentration-response curve where the effect stands at 90%. In general, inhibition refers to the change of the read-out against control, counted positive when it falls.

These data come from paper PMC12679539, “Synthesis and evaluation of nitroheterocyclic aromatic adamantane amides with trypanocidal activity. Part II” (RSC Medicinal Chemistry, 2025).
